Where a name gives a salt, the structure may show the parent alone. ± gives the standard deviation of the averaged measurements.
Test system: HepaRG
Test: LDH release cytotoxicity, % of total lysis control; higher = more cytotoxic
Details: 48 h
Procedure, shortened: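 The CytoTox-ONE kit was used to read LDH in 50 µL spent medium as resorufin fluorescence on a Tecan Safire, with 0.1% Triton X added to total lysis wells. Beforehand, single-lot HepaRG cells on collagen I-coated 96-well plates had been exposed in duplicate for 48 h to eight-point half-log series (top 100 µM) in serum-free induction medium containing 0.5% DMSO. Percent cytotoxicity was normalized against on-plate vehicle and total lysis controls and averaged over duplicates.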

C=CCC1=C(C)C(OC(=O)C2C(C=C(C)C)C2(C)C)CC1=O (centres undefined) [S-Bioallethrin]
Details	LDH release cytotoxicity [%]
0.0147 µM	-2.51 ± 0.52
0.0465 µM	-1.46 ± 0.56
0.147046 µM	-1.76 ± 0.23
0.465 µM	-2.13 ± 0.17
1.4704591 µM	-1.73 ± 0.45
4.65 µM	-1.51 ± 0.71
14.7046 µM	-0.957 ± 0.95
46.5 µM	0.422 ± 0.55

C=CCc1ccc2c(c1)OCO2 [Safrole]
Details	LDH release cytotoxicity [%]
0.03162 µM	-1.32 ± 2.9
0.1 µM	-2.757 ± 0.0064
0.3162278 µM	-3.53 ± 1
1 µM	-4.07 ± 0.0064
3.16228 µM	-3.36 ± 0.43
10 µM	-2.27 ± 1.1
31.6228 µM	-1.93 ± 2.5
100 µM	1.79 ± 3.3

CCCC(=NOCC)C1C(=O)CC(CC(C)SCC)CC1=O (centres undefined) [Sethoxydim]
Details	LDH release cytotoxicity [%]
0.0317809 µM	-1.15 ± 0.24
0.1005 µM	-1.26 ± 0.2
0.317809 µM	-1.36 ± 1.4
1.005 µM	-1.93 ± 0.12
3.17809 µM	-1.21 ± 0.21
10.05 µM	-0.579 ± 0.73
31.7809 µM	-0.893 ± 0.41
100.5 µM	0.566 ± 0.081

O=[Si]=O [Silica]
Details	LDH release cytotoxicity [%]
0.03162 µM	-1.16 ± 0.54
0.1 µM	-1.07 ± 0.26
0.3162278 µM	-1.23 ± 0.016
1 µM	-0.971 ± 0.66
3.16228 µM	-1.72 ± 0.45
10 µM	-1.27 ± 0.37
31.6228 µM	-0.861 ± 1
100 µM	0.501 ± 1.1

CCNc1nc(Cl)nc(NCC)n1 [Simazine]
Details	LDH release cytotoxicity [%]
0.03162 µM	-0.667 ± 0.47
0.1 µM	-1.85 ± 0.54
0.3162278 µM	-2.13 ± 0.56
1 µM	-2.25 ± 0.22
3.16228 µM	-2.26 ± 0.15
10 µM	-1.94 ± 0.14
31.6228 µM	-0.91 ± 0.2
100 µM	-0.579 ± 0.64

O=[N+]([O-])c1ccc(O)cc1 [Sodium 4-nitrophenolate]
Details	LDH release cytotoxicity [%]
0.03162 µM	-0.704 ± 0.2
0.1 µM	-1.68 ± 0.15
0.3162278 µM	-1.99 ± 0.34
1 µM	-1.48 ± 0.37
3.16228 µM	-1.71 ± 0.25
10 µM	-1.02 ± 0.3
31.6228 µM	-0.45 ± 0.45
100 µM	0.91 ± 0.54

[O-][n+]1ccccc1S [Sodium (2-pyridylthio)-N-oxide]
Details	LDH release cytotoxicity [%]
0.03162 µM	-1.41 ± 0.6
0.1 µM	-0.73 ± 0.66
0.3162278 µM	-1.67 ± 0.53
1 µM	-0.357 ± 1.3
3.16228 µM	-1.51 ± 0.23
10 µM	-1.01 ± 0.22
31.6228 µM	-0.585 ± 0.072
100 µM	1.58 ± 0.14

[N-]=[N+]=[N-] [Sodium azide]
Details	LDH release cytotoxicity [%]
0.03162 µM	-0.587 ± 0.19
0.1 µM	-0.947 ± 0.078
0.3162278 µM	-1.17 ± 1.3
1 µM	-1.29 ± 0.45
3.16228 µM	-1.23 ± 0.56
10 µM	-0.668 ± 0.061
31.6228 µM	-0.413 ± 0.77
100 µM	7.38 ± 1.2

O=C(O)c1ccccc1 [Sodium benzoate]
Details	LDH release cytotoxicity [%]
0.031623 µM	0.689 ± 0.63
0.1 µM	-2.13 ± 1.3
0.316228 µM	-2.23 ± 0.31
1 µM	-3.15 ± 0.39
3.16228 µM	-2.88 ± 0.63
10 µM	-2.37 ± 0.27
31.6228 µM	-1.36 ± 0.096
100 µM	-0.292 ± 1.2

[O-][Cl+]O [Sodium chlorite]
Details	LDH release cytotoxicity [%]
0.03162 µM	0.165 ± 0.73
0.1 µM	0.219 ± 1.2
0.3162278 µM	-0.973 ± 0.84
1 µM	-1.49 ± 0.98
3.16228 µM	-1.49 ± 0.44
10 µM	0.0935 ± 0.52
31.6228 µM	-0.775 ± 0.093
100 µM	1.68 ± 0.64

CC(=O)C1C(=O)C=C(C)OC1=O (centres undefined) [Sodium dehydroacetate]
Details	LDH release cytotoxicity [%]
0.03162 µM	-0.267 ± 0.55
0.1 µM	-1.4 ± 0.22
0.3162278 µM	-2.06 ± 0.58
1 µM	-1.85 ± 0.29
3.16228 µM	-2.36 ± 0.14
10 µM	-1.16 ± 0.3
31.6228 µM	-0.728 ± 0.029
100 µM	0.541 ± 0.069

CN(C)C(=S)S [Sodium dimethyldithiocarbamate]
Details	LDH release cytotoxicity [%]
0.03162 µM	-0.405 ± 0.41
0.1 µM	-0.29 ± 1
0.3162278 µM	-0.988 ± 0.04
1 µM	-0.72 ± 0.44
3.16228 µM	-0.138 ± 0.64
10 µM	0.154 ± 0.44
31.6228 µM	0.196 ± 0.41
100 µM	2.63 ± 2.6

CCCCCCCCCCCCOS(=O)(=O)O [Sodium dodecyl sulfate]
Details	LDH release cytotoxicity [%]
0.03162 µM	-0.308 ± 0.48
0.1 µM	-0.693 ± 0.47
0.3162278 µM	-1.14 ± 0.2
1 µM	-0.62 ± 0.91
3.16228 µM	-1.89 ± 0.58
10 µM	-1.05 ± 0.87
31.6228 µM	0.0441 ± 0.35
100 µM	10.1 ± 0.28

CCCCCCCCCCCCc1ccccc1S(=O)(=O)O [Sodium dodecylbenzenesulfonate]
Details	LDH release cytotoxicity [%]
0.03162 µM	-1.64 ± 0.19
0.1 µM	-2.37 ± 0.1
0.3162278 µM	-2.11 ± 0.97
1 µM	-2.14 ± 0.36
3.16228 µM	-1.89 ± 0.21
10 µM	-2.56 ± 1.3
31.6228 µM	-1.08 ± 0.42
100 µM	49.9 ± 3.5

CCCCCCCCCCCCCCCCOS(=O)(=O)O [Sodium hexyldecyl sulfate]
Details	LDH release cytotoxicity [%]
0.01581 µM	-0.927 ± 0.59
0.05 µM	-0.892 ± 0.52
0.1581139 µM	-1.25 ± 0.18
0.5 µM	-1.53 ± 0.15
1.5811388 µM	-0.623 ± 0.48
5 µM	-0.974 ± 0.097
15.8114 µM	-0.978 ± 0.78
50 µM	10.6 ± 1.9

CCCCCCCCCCCCCCOS(=O)(=O)O [Sodium myristyl sulfate]
Details	LDH release cytotoxicity [%]
0.03162 µM	-2.12 ± 0.45
0.1 µM	-2.09 ± 0.56
0.3162278 µM	-2.4 ± 1.5
1 µM	-2.13 ± 0.48
3.16228 µM	-2.25 ± 0.37
10 µM	-1.43 ± 0.37
31.6228 µM	-1.69 ± 0.59
100 µM	12.5 ± 6.7

O=NO [Sodium nitrite]
Details	LDH release cytotoxicity [%]
0.03162 µM	-3.61 ± 3.5
0.1 µM	0.52 ± 1.1
0.3162278 µM	-0.867 ± 0.14
1 µM	-2.02 ± 0.5
3.16228 µM	-1.06 ± 0.48
10 µM	-0.549 ± 0.34
31.6228 µM	-1.15 ± 0.46
100 µM	0.684 ± 0.51

O=C1NS(=O)(=O)c2ccccc21 [Sodium saccharin hydrate]
Details	LDH release cytotoxicity [%]
0.03162 µM	-0.893 ± 0.069
0.1 µM	-1.1 ± 0.76
0.3162278 µM	-0.541 ± 0.034
1 µM	-1.22 ± 0.43
3.16228 µM	-1.77 ± 0.0062
10 µM	-0.645 ± 0.66
31.6228 µM	-0.345 ± 0.15
100 µM	1.33 ± 0.048

Reference: the supplement of paper PMC7840683
